Source: patent publication EP3995521A1, “BLOCKED POLYISOCYANATE COMPOSITION, HYDROPHILIC POLYISOCYANATE COMPOSITION, RESIN COMPOSITION, RESIN FILM AND LAMINATED BODY” (Asahi Kasei Kabushiki Kaisha, priority 2019, dated 2021)

Assay: Surface tension of dispersing agent at 25°C by Wilhelmy method (Physical property 1-5)
Format: physicochemical
Settings: aqueous solution of 0.1% by mass of the dispersing agent
Procedure: The surface tension may be determined by the following method, for example. An anionic dispersion agent is diluted with water to prepare an aqueous solution consisting of: 0.1% by mass of the anionic dispersion agent, relative to the total mass of the aqueous solution; and water. Then, the aqueous solution was used to measure the surface tension at 25°C by Wilhelmy method (which may be referred to as plate method or vertical plate method). Specifically, when a plate that is a measuring unit makes contact with the surface of the aqueous solution, the aqueous solution wets the plate upwards. At the time, the surface tension acts along the perimeter of the plate, and the force that pulls the plate into the aqueous solution generates. The pulling force F (force that acts on the plate, measuring force) is read, and the surface tension r is determined by the following formula. In the formula, L represents the perimeter (m) of the plate, and θ represents the contact angle of the plate and the aqueous solution. r = F/(L×cosθ) [formula]
The surface tension may be measured using a commercially available measurement device, such as static surface tension measurement system (manufactured by DKSH Japan, under the model number of TD 1C or TD 3).
Each dispersing agent used in the examples and comparative examples was diluted with water to prepare an aqueous solution of the dispersing agent consisting of: 0.1% by mass of the anionic dispersion agent, relative to the total mass of the aqueous solution; and water. Then, the resultant aqueous solution of the dispersing agent was used to measure the surface tension at 25°C by Wilhelmy method.

surface tension at 25°C (listed as compound (II-1)) [mN/m]	Compound	surface tension at 25°C [mN/m]
30.7	Ammonium polyoxyethylene alkylether sulfate [Example D-6]	38.8
–	CCCCC(CC)COCCOCCOP(=O)([O-])O.[Na+] [Example D-4, Polyoxyalkylene alkylether phosphoric acid ester]	30.7
